We go through 13 compounds from US20250092065A1, “2-(INDAZOL-5-YL)-6-(PIPERIDIN-4-YL)-1,7-NAPHTHYRIDINE DERIVATIVES AND RELATED COMPOUNDS AS MODULATORS FOR SPLICING NUCLEIC ACIDS AND FOR THE TREATMENT OF PROLIFERATIVE DISEASES” (REMIX THERAPEUTICS INC., priority 2022, published 2025).

By AC50 is commonly meant the concentration at which the activity in the assay is half-maximal. By IC50 is commonly meant the point on the concentration scale where inhibition reaches its midpoint.

Counter-ions that a name gives are not always drawn. Like-named read-outs stand apart in the source and are kept apart here.

In one data set the test system is HTT mRNA. In words: RT-qPCR splicing assay, HTT mRNA canonical (CJ) and alternative (AJ) junction. The class given is cell-based, human. As to conditions: Homo sapiens; for AC50: HTT alternative junction mRNA, read-out: HTT AJ (increase in AJ mRNA, AC50). In short, it runs like this:
(§1)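 Both isoforms, CJ and AJ, read by qPCR from crude lysates of treated A673 or K562 cells; 24 h, 37 °C, maximum 10 uM. Normalization: housekeeper ΔCt, then DMSO ΔΔCt.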
(Quantitative PCR measures a nucleic acid by following its amplification.)

The next data set has as its system Target C. The experiment in a line: RT-qPCR canonical junction panel assay, Target C mRNA. The format is cell-based. The settings on record: Table 4, read-out: Target C IC50 (decrease in CJ mRNA levels). In short, it runs like this:
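IC50 is the concentration giving 50% CJ decrease, from a 4-parameter logistic fit of percent response; response derived from ΔΔCt against housekeeper and DMSO over a fixed ΔCt window, with canonical exon-junction qPCR in compound-treated K562 or A673 cells.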

In another data set the test system is K562 cells. The experiment in a line: Cell Titer Glo 2.0 cell viability (toxicity) assay, K562. As to conditions: 500 cells/well, 72 hours. (In general: In ATP-based viability assays light output follows the ATP content of the culture.)
The next data set concerns SMN2 mRNA. In words: RT-qPCR splicing assay, SMN2 mRNA. The format is cell-based, human. The settings on record: Homo sapiens, canonical junction qPCR panel, Table 4; read-out: SMN2 IC50 (decrease in CJ mRNA levels). In short, it runs like this:
as §1

[1] abbreviates: HTT canonical junction mRNA, RT-qPCR, read-out: HTT CJ (decrease in CJ mRNA levels, IC50).
The mark [2] stands for this setting: canonical junction qPCR panel, Table 4, read-out: HTT IC50 (decrease in CJ mRNA levels).

Take `Cc1c(O)c(-c2ncc3nc(N4C[C@@H](C)N[C@@H](C)C4)ccc3n2)cc2cn(C)nc12` [Compound 526, 5-{6-[(3R,5S)-3,5-dimethylpiperazin-1-yl]pyrido[3,2-d]pyrimidin-2-yl}-2,7-dimethylindazol-6-ol]: the half-maximal activity concentration (AC50) in the data set with HTT mRNA (RT-qPCR) fell in the range of 1 to 10 µM. Besides, the IC50 is 0.1 to 1 µM in the data set with HTT mRNA (setting [1]), 0.1 to 1 µM in the data set on HTT mRNA (setting [2]), 1 to 10 µM in the data set on Target C and < 0.1 µM in the data set with SMN2 mRNA. The “Effect of Exemplary Compounds on Cell Viability, K562” value (“Effect of Exemplary Compounds” for short) in the data set with K562 cells is “B (B represents 100-1000 nM)”.

As to `CNC(=O)c1nc(-c2cc3cn(C)nc3c(F)c2O)nc2ccc(N3C[C@@H](C)N[C@@H](C)C3)cc12` [Compound 527, 6-[(3R,5S)-3,5-dimethylpiperazin-1-yl]-2-(7-fluoro-6-hydroxy-2-methylindazol-5-yl)-N-methylquinazoline-4-carboxamide], the AC50 in the data set with HTT mRNA (RT-qPCR) is 0.1 to 1 µM. Also, the half-maximal inhibitory concentration (IC50) in the data set with HTT mRNA (setting [1]) was < 0.1 µM; with HTT mRNA (setting [2]), < 0.1 µM; in the data set with Target C it was 0.1 to 1 µM; in the data set on SMN2 mRNA, < 0.1 µM. Moreover, the “Effect of Exemplary Compounds” value in the data set on K562 cells is reported as “A (A represents <100 nM)”.

Consider `CNC(=O)c1nc(-c2cc3cn(C)nc3c(F)c2O)nc2ccc(N3CCC(N(C)C)CC3)cc12` [Compound 528, 6-[4-(dimethylamino)piperidin-1-yl]-2-(7-fluoro-6-hydroxy-2-methylindazol-5-yl)-N-methylquinazoline-4-carboxamide], for which, in the data set on HTT mRNA (RT-qPCR), the AC50 fell in the range of 1 to 10 µM. Besides, the IC50 in the data set on HTT mRNA (setting [1]) is 0.1 to 1 µM; in the data set on HTT mRNA (setting [2]) it was 0.1 to 1 µM; in the data set on Target C, 1 to 10 µM; in the data set on SMN2 mRNA, < 0.1 µM. Moreover, the “Effect of Exemplary Compounds” value in the data set on K562 cells was “A (A represents <100 nM)”.

For the compound `CNC(=O)c1nc(-c2cc3cn(C)nc3c(F)c2O)nc2ccc(N3CCN[C@@H](C)C3)cc12` [Compound 529, 2-(7-fluoro-6-hydroxy-2-methylindazol-5-yl)-N-methyl-6-[(3S)-3-methylpiperazin-1-yl]quinazoline-4-carboxamide], the AC50 with HTT mRNA (RT-qPCR) was 0.1 to 1 µM. The IC50 with HTT mRNA (setting [1]) is 0.1 to 1 µM; in the data set on HTT mRNA (setting [2]), 0.1 to 1 µM; in the data set with Target C, 1 to 10 µM; in the data set on SMN2 mRNA it was < 0.1 µM. In addition, the “Effect of Exemplary Compounds” value in the data set on K562 cells is reported as “A (A represents <100 nM)”.

As to `CNC(=O)c1nc(-c2cc3cn(C)nc3cc2O)nc2ccc(N3CCN[C@@H](C)C3)cc12` [Compound 530, 2-(6-hydroxy-2-methylindazol-5-yl)-N-methyl-6-[(3S)-3-methylpiperazin-1-yl]quinazoline-4-carboxamide], in the data set with HTT mRNA (RT-qPCR), the AC50 fell in the range of 1 to 10 µM. Moreover, the 50% inhibitory concentration (IC50) in the data set on HTT mRNA (setting [1]) was 1 to 10 µM; in the data set with HTT mRNA (setting [2]) it was 1 to 10 µM; in the data set on Target C it was > 10 µM; in the data set with SMN2 mRNA, < 0.1 µM. The “Effect of Exemplary Compounds” value in the data set on K562 cells is listed as “A (A represents <100 nM)”.

With `CNC(=O)c1nc(-c2cc3cn(C)nc3cc2O)nc2ccc(N3C[C@@H](C)N[C@@H](C)C3)cc12` [Compound 531, 6-[(3R,5S)-3,5-dimethylpiperazin-1-yl]-2-(6-hydroxy-2-methylindazol-5-yl)-N-methylquinazoline-4-carboxamide], the AC50 in the data set on HTT mRNA (RT-qPCR) is > 10 µM. The 50% inhibitory concentration (IC50) with HTT mRNA (setting [1]) was 1 to 10 µM; with HTT mRNA (setting [2]), 1 to 10 µM; with Target C, > 10 µM; with SMN2 mRNA it was < 0.1 µM. For the same compound, the “Effect of Exemplary Compounds” value in the data set with K562 cells is “A (A represents <100 nM)”.

Regarding `CNC(=O)c1nc(-c2cc3cn(C)nc3c(C)c2O)nc2ccc(N3CCNC4(CC4)C3)cc12` [Compound 532, 6-{4,7-diazaspiro[2.5]octan-7-yl}-2-(6-hydroxy-2,7-dimethylindazol-5-yl)-N-methylquinazoline-4-carboxamide], the AC50 in the data set on HTT mRNA (RT-qPCR) fell in the range of 0.1 to 1 µM. The IC50 in the data set on HTT mRNA (setting [1]) was 0.1 to 1 µM; in the data set on HTT mRNA (setting [2]) it was 0.1 to 1 µM; in the data set on Target C, > 10 µM; in the data set on SMN2 mRNA, < 0.1 µM. Moreover, in the data set on K562 cells, the “Effect of Exemplary Compounds” value is given as “B (B represents 100-1000 nM)”.

In the case of `CNC(=O)c1nc(-c2cc3cn(C)nc3c(C)c2O)nc2ccc(N3CCNCC3)nc12` [Compound 533, 2-(6-hydroxy-2,7-dimethylindazol-5-yl)-N-methyl-6-(piperazin-1-yl)pyrido[3,2-d]pyrimidine-4-carboxamide], in the data set with HTT mRNA (RT-qPCR), the half-maximal activity concentration (AC50) is 1 to 10 µM. The IC50 with HTT mRNA (setting [1]) is 1 to 10 µM; in the data set on HTT mRNA (setting [2]) it was 1 to 10 µM; in the data set on Target C it was > 10 µM; in the data set on SMN2 mRNA it was < 0.1 µM. Besides, in the data set with K562 cells, the “Effect of Exemplary Compounds” value was “B (B represents 100-1000 nM)”.

`CNC(=O)c1nc(-c2cc3cn(C)nc3c(C)c2O)nc2ccc(N3C[C@@H](C)N[C@@H](C)C3)nc12` [Compound 534, 6-[(3R,5S)-3,5-dimethylpiperazin-1-yl]-2-(6-hydroxy-2,7-dimethylindazol-5-yl)-N-methylpyrido[3,2-d]pyrimidine-4-carboxamide]: in the data set with HTT mRNA (RT-qPCR), the concentration at half-maximal activity (AC50) is > 10 µM. Also, the half-maximal inhibitory concentration (IC50) with HTT mRNA (setting [1]) was > 10 µM; in the data set with HTT mRNA (setting [2]) it was > 10 µM; in the data set with Target C, > 10 µM; in the data set on SMN2 mRNA it was < 0.1 µM. For the same compound, in the data set with K562 cells, the “Effect of Exemplary Compounds” value is “B (B represents 100-1000 nM)”.

For `CCNC(=O)c1nc(-c2cc3cn(C)nc3c(C)c2O)nc2ccc(N3C[C@@H](C)N[C@@H](C)C3)cc12` [Compound 535, 6-[(3R,5S)-3,5-dimethylpiperazin-1-yl]-N-ethyl-2-(6-hydroxy-2,7-dimethylindazol-5-yl)quinazoline-4-carboxamide], in the data set on HTT mRNA (RT-qPCR), the concentration at half-maximal activity (AC50) is 0.1 to 1 µM. The IC50 with HTT mRNA (setting [1]) was < 0.1 µM; in the data set with HTT mRNA (setting [2]) it was < 0.1 µM; with Target C it was 1 to 10 µM; in the data set with SMN2 mRNA, < 0.1 µM. In addition, the “Effect of Exemplary Compounds” value in the data set on K562 cells is given as “A (A represents <100 nM)”.

Take `CNC(=O)c1nc(-c2cc3cn(C)nc3c(C)c2O)nc2ccc(N3CC[C@@H](NC)C3)cc12` [Compound 536, 2-(6-hydroxy-2,7-dimethylindazol-5-yl)-N-methyl-6-[(3R)-3-(methylamino)pyrrolidin-1-yl]quinazoline-4-carboxamide]: the AC50 with HTT mRNA (RT-qPCR) was < 0.1 µM. Further, the IC50 in the data set on HTT mRNA (setting [1]), in the data set with HTT mRNA (setting [2]), with Target C and in the data set on SMN2 mRNA was < 0.1 µM each time. Further, the “Effect of Exemplary Compounds” value with K562 cells was “A (A represents <100 nM)”.

With `CNC(=O)c1nc(-c2cc3cn(C)nc3c(C)c2O)nc2ccc(N3CC[C@H](NC)C3)cc12` [Compound 537, 2-(6-hydroxy-2,7-dimethylindazol-5-yl)-N-methyl-6-[(3S)-3-(methylamino)pyrrolidin-1-yl]quinazoline-4-carboxamide], the AC50 in the data set with HTT mRNA (RT-qPCR) lay within 0.1 to 1 µM. Besides, the IC50 was < 0.1 µM with HTT mRNA (setting [1]), < 0.1 µM in the data set on HTT mRNA (setting [2]), 0.1 to 1 µM with Target C and < 0.1 µM in the data set on SMN2 mRNA. Further, the “Effect of Exemplary Compounds” value in the data set on K562 cells is given as “A (A represents <100 nM)”.

Regarding `Cc1c(O)c(-c2nc(-c3c[nH]nn3)c3cc(N4CCNCC4)ccc3n2)cc2cn(C)nc12` [Compound 538, 2,7-dimethyl-5-[6-(piperazin-1-yl)-4-(1H-1,2,3-triazol-4-yl)quinazolin-2-yl]indazol-6-ol hydrochloride], the AC50 in the data set with HTT mRNA (RT-qPCR) lay within 1 to 10 µM. The IC50 was in the range of 1 to 10 µM with HTT mRNA (setting [1]), 1 to 10 µM in the data set on HTT mRNA (setting [2]), 1 to 10 µM with Target C and 0.1 to 1 µM in the data set on SMN2 mRNA. The “Effect of Exemplary Compounds” value in the data set with K562 cells is reported as “C (C represents 1000-9999 nM)”.
